Reference: US10774087B2, “Sulfonamide derivative having coumarin skeleton” (Daiichi Sankyo Company, Limited, priority 2016, dated 2020)
Counter-ions that a name gives are not always drawn. Like-named read-outs stand apart in the source and are kept apart here.

Experiments:
[1] = target: T1, recombinant MTHFD2 protein (Homo sapiens, UniProt P13995); assay: MTHFD2 dehydrogenase assay; format: biochemical
T1 construct: containing recombinant MTHFD2 protein
T1 sequence (P13995 36-350): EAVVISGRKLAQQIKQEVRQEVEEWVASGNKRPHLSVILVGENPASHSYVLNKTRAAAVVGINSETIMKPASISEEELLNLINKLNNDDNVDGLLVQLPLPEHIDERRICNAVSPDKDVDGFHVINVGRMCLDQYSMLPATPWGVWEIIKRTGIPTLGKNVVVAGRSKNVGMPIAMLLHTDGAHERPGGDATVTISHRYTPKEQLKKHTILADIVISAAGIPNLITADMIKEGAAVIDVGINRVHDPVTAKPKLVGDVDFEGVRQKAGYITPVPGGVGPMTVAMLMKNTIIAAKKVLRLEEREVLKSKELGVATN

MDA-MB-231 luc cells = assay: Growth inhibition test using MDA-MB-231 luc cells; format: cell-based, human
[2] = target: T2, recombinant MTHFD1 protein (dehydrogenase domain, alone) (Homo sapiens, UniProt P11586); assay: MTHFD1 dehydrogenase assay; format: biochemical
T2 construct: recombinant MTHFD1 protein (dehydrogenase domain, alone)
T2 sequence (P11586 2-291 limits assumed): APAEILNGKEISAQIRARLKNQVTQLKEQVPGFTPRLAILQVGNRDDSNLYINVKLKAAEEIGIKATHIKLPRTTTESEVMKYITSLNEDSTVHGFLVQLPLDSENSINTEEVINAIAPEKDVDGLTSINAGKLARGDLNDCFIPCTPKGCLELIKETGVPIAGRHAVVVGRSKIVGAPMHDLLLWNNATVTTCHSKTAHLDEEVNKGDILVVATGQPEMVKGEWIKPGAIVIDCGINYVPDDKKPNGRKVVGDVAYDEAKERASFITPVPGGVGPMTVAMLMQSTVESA

[3] = 200 μM NAD, room temperature 30 minutes, absorbance 355 nm
[4] = human breast cancer MDA-MB-231 luc, Day 3, cell-titer Glo, Day 0 value subtracted, read-out: GI50
[5] = 165.4 μM NADP, room temperature 30 minutes, absorbance 355 nm

| Structure (SMILES) | IC50 [1, 3] [µM] | GI50 (MDA-MB-231 luc cells; Homo sapiens, MDA-MB-231) [µM] | GI50 (MDA-MB-231 luc cells; [4]) [µM] | IC50 [2, 5] [µM] | IC50 [1] [µM] | IC50 [2] [µM] |
| --- | --- | --- | --- | --- | --- | --- |
| Cc1c(N2CCN(C)CC2)ccc2c3c(c(=O)oc12)CN(C(=O)c1ccc(NS(C)(=O)=O)c(Cl)c1)CC3 [Example 1, N-(2-chloro-4-{[7-methyl-8-(4-methylpiperazin-1-yl)-5-oxo-1,5-dihydro-2H-chromeno[3,4-c]pyridin-3(4H)-yl]carbonyl}phenyl)methanesulfonamide] | 0.048 | 0.94 | – | – | – | – |
| Cc1c(N2CCN(C)CC2)ccc2c3c(c(=O)oc12)CN(C(=O)c1ccc(NS(=O)(=O)C2CC2)c(Cl)c1)CC3 [Example 2, N-(2-Chloro-4-{[7-methyl-8-(4-methylpiperazin-1-yl)-5-oxo-1,5-dihydro-2H-chromeno[3,4-c]pyridin-3(4H)-yl]carbonyl}phenyl)cyclopropanesulfonamide] | 0.028 | – | 1.1 | 2.2 | – | – |
| Cc1c(N2CCN(C)CC2)ccc2c3c(c(=O)oc12)CN(C(=O)c1ccc(NS(C)(=O)=O)c(OC(F)(F)F)c1)CC3 [Example 3, N-[4-{[7-Methyl-8-(4-methylpiperazin-1-yl)-5-oxo-1,5-dihydro-2H-chromeno[3,4-c]pyridin-3(4H)-yl]carbonyl}-2-(trifluoromethoxy)phenyl]methanesulfonamide] | 0.021 | 0.38 | – | – | – | – |
| Cc1c(N2CCN(C)[C@@H](C)C2)ccc2c3c(c(=O)oc12)CN(C(=O)c1ccc(NS(C)(=O)=O)c(Cl)c1)CC3 [Example 4, N-[2-Chloro-4-({8-[(3S)-3,4-dimethylpiperazin-1-yl]-7-methyl-5-oxo-1,5-dihydro-2H-chromeno[3,4-c]pyridin-3(4H)-yl}carbonyl)phenyl]methanesulfonamide] | 0.0093 | 0.2 | – | – | – | – |
| Cc1c(N2CCN(C)[C@@H](C)C2)ccc2c3c(c(=O)oc12)CN(C(=O)c1ccc(NS(C)(=O)=O)c(OC(F)(F)F)c1)CC3 [Example 5, N-[4-({8-[(3S)-3,4-Dimethylpiperazin-1-yl]-7-methyl-5-oxo-1,5-dihydro-2H-chromeno[3,4-c]pyridin-3(4H)-yl}carbonyl)-2-(trifluoromethoxy)phenyl]methanesulfonamide] | – | 0.14 | – | – | – | – |
| Cc1c(N2CCN(C)[C@@H](C)C2)ccc2c3c(c(=O)oc12)CN(C(=O)c1ccc(NS(C)(=O)=O)c(C(F)(F)F)c1)CC3 [Example 6, N-[4-({8-[(3S)-3,4-Dimethylpiperazin-1-yl]-7-methyl-5-oxo-1,5-dihydro-2H-chromeno[3,4-c]pyridin-3(4H)-yl}carbonyl)-2-(trifluoromethyl)phenyl]methanesulfonamide] | – | 0.21 | – | – | 0.0064 | 1.5 |
| Cc1c(N2CCN(C)[C@@H](C)C2)cc(C)c2c3c(c(=O)oc12)CN(C(=O)c1ccc(NS(C)(=O)=O)c(Cl)c1)CC3 [Example 7, N-[2-Chloro-4-({8-[(3S)-3,4-dimethylpiperazin-1-yl]-7,10-dimethyl-5-oxo-1,5-dihydro-2H-chromeno[3,4-c]pyridin-3(4H)-yl}carbonyl)phenyl]methanesulfonamide] | – | 0.1 | – | – | 0.0044 | 0.56 |
| Cc1c(N2CCN(C)[C@@H](C)C2)cc(C)c2c3c(c(=O)oc12)CN(C(=O)c1ccc(NS(C)(=O)=O)c(OC(F)(F)F)c1)CC3 [Example 8, N-[4-({8-[(3S)-3,4-Dimethylpiperazin-1-yl]-7,10-dimethyl-5-oxo-1,5-dihydro-2H-chromeno[3,4-c]pyridin-3(4H)-yl}carbonyl)-2-(trifluoromethoxy)phenyl]methanesulfonamide] | – | 0.045 | – | – | 0.0026 | 0.2 |
| CCS(=O)(=O)Nc1ccc(C(=O)N2CCc3c(c(=O)oc4c(C)c(N5CCN(C)[C@@H](C)C5)ccc34)C2)cc1OC(F)(F)F [Example 9, N-[4-({8-[(3S)-3,4-Dimethylpiperazin-1-yl]-7-methyl-5-oxo-1,5-dihydro-2H-chromeno[3,4-c]pyridin-3(4H)-yl}carbonyl)-2-(trifluoromethoxy)phenyl]ethanesulfonamide] | – | 0.12 | – | – | 0.0047 | 0.4 |
| CCS(=O)(=O)Nc1ccc(C(=O)N2CCc3c(c(=O)oc4c(C)c(N5CCN(C)[C@@H](C)C5)cc(C)c34)C2)cc1OC(F)(F)F [Example 10, N-[4-({8-[(3S)-3,4-Dimethylpiperazin-1-yl]-7,10-dimethyl-5-oxo-1,5-dihydro-2H-chromeno[3,4-c]pyridin-3(4H)-yl}carbonyl)-2-(trifluoromethoxy)phenyl]ethanesulfonamide] | 0.0027 | – | 0.017 | 0.22 | – | – |
| CC[C@H]1CN(c2ccc3c4c(c(=O)oc3c2C)CN(C(=O)c2ccc(NS(C)(=O)=O)c(OC(F)(F)F)c2)CC4)CCN1C [Example 11, N-[4-({8-[(3S)-3-Ethyl-4-methylpiperazin-1-yl]-7-methyl-5-oxo-1,5-dihydro-2H-chromeno[3,4-c]pyridin-3(4H)-yl}carbonyl)-2-(trifluoromethoxy)phenyl]methanesulfonamide] | – | 0.12 | – | – | 0.0051 | 0.36 |
| Cc1c(N2CCN(C)C(C)(C)C2)ccc2c3c(c(=O)oc12)CN(C(=O)c1ccc(NS(C)(=O)=O)c(OC(F)(F)F)c1)CC3 [Example 12, N-[4-{[7-Methyl-5-oxo-8-(3,3,4-trimethylpiperazin-1-yl)-1,5-dihydro-2H-chromeno[3,4-c]pyridin-3(4H)-yl]carbonyl}-2-(trifluoromethoxy)phenyl]methanesulfonamide] | – | 0.066 | – | – | 0.075 | 0.71 |
| Cc1c(N2CCN[C@@H](C)C2)ccc2c3c(c(=O)oc12)CN(C(=O)c1ccc(NS(C)(=O)=O)c(OC(F)(F)F)c1)CC3 [Example 13, N-[4-({7-Methyl-8-[(3S)-3-methylpiperazin-1-yl]-5-oxo-1,5-dihydro-2H-chromeno[3,4-c]pyridin-3(4H)-yl}carbonyl)-2-(trifluoromethoxy)phenyl]methanesulfonamide hydrochloride] | 0.0078 | 0.26 | – | 0.9 | – | – |
| Cc1c(N2C[C@@H](C)N(C)[C@@H](C)C2)ccc2c3c(c(=O)oc12)CN(C(=O)c1ccc(NS(C)(=O)=O)c(Cl)c1)CC3 [Example 14, N-[2-Chloro-4-({7-methyl-5-oxo-8-[(3R,5S)-3,4,5-trimethylpiperazin-1-yl]-1,5-dihydro-2H-chromeno[3,4-c]pyridin-3(4H)-yl}carbonyl)phenyl]methanesulfonamide] | 0.037 | 0.78 | – | – | – | – |
